Several values for one entry are separate records, joined by “and”; a condition that tells them apart may be missing. Identical values can stand only once.
How the values were obtained:
[1] = test system: inflammatory angiogenesis in mice; test: Model of inflammatory angiogenesis in mice; type: in vivo; settings: for % inhibition of the angiogenic parameter (dye content) / % inhibition of the inflammatory parameter (mass of the granuloma): mice, daily oral treatment
Procedure: The model is developed on OF1 female mice (Charles River Laboratories) weighing approximately 25 g, and by groups of 12. The animals are anaesthetized with sodium pentobarbital (60 mg/kg; Sanofi Nutrition Santé animale)) intraperitoneally. An air pocket is created on the back of the mouse by subcutaneous injection of 3 ml of air. […] Seven days later, the mice are again anaesthetized and placed on a hot plate at 40° C. One ml of carmine red (Aldrich Chemicals, 5% in 10% of gelatin) is injected into the tail vein. The animals are then placed at 4° C. for 2-3 hours. The skins are then taken and dried for 24 h in an oven at 56° C. The dry tissues are weighed and placed in 1.8 ml of digestion solution (2 mM dithiothreitol, 20 mM Na2HPO4, 1 mM EDTA, 12 U/ml papain) for 24 h. The dye is then dissolved in 0.2 ml of 5M NaOH. The skins are centrifuged at 2000 rpm for 10 min at ambient temperature. The supernatants are filtered through 0.2 μm cellulose acetate membranes. The filtrates are read in a spectrophotometer at 492 nm against a carmine red calibration range. Two parameters are studied: the dry weight of the granuloma and the amount of dye after digestion of the tissues. The results are expressed as mean values (±sem). The differences between the groups are tested with an ANOVA followed by a Dunnett's test, of which the reference group is the “solvent control” group.
The FGF-R antagonists are evaluated between 1 and 50 mg/kg using methylcellulose/tween (0.6% v/v) as vehicle or any other vehicle which allows the active ingredient to be solubilized. The molecules are administered daily, orally (one or two times a day) by gavage.

[2] = test system: HUVEC cells stimulated with FGF-2; test: FGF-2-induced in vitro angiogenesis of HUVEC cells; type: cell-based, human; settings: as a percentage of the control
Procedure: To do this, matrices composed of matrigel (growth factor reduced matrigel, Becton Dickinson 356230) and collagen (rat tail collagen type I, Becton Dickinson 354236) are deposited, at a rate of 160 μl, into each chamberslide well (Biocoat Cellware collagen, Type I, 8-well culturesides: Becton Dickinson 354630), or 60 μl per well of 96-well plates (Biocoat collagen I cellware, Becton Dickinson 354407). The matrix is prepared by mixing ⅓ of matrigel, 1 mg/ml final concentration of collagen, NaOH (0.1N) (0.026× the volume of collagen in μl) and 1×PBS, and the volume is then adjusted with water. The gels are kept at 37° C. for 1 hour so as to allow them to polymerize. Next, the human vein endothelial cells (HUVECs ref: C-12200-Promocell) were seeded at 15×10^3 or 6×10^3 cells/well in 400 or 120 μl (for the 8-well or 96-well plates respectively) of EBM medium (Clonetics C3121)+2% FBS+10 μg/ml hEGF. They were stimulated with 1 or 3 ng/ml of FGF-2 (R&D systems, 133-FB-025; Invitrogen, PHG0026) for 24 h at 37° C. in the presence of 5% CO2. After 24 hours, the length of the network of microtubules formed was measured using a computer-assisted image analysis system (Imagenia Biocom, Courtaboeuf, France) and the total length of the pseudotubules in each well was determined. The average total length of the microcapillary network was calculated in μm for each condition corresponding to the average of 6 replicates.
Stimulation with FGF2 makes it possible to induce the formation of new tubules. An FGF-R antagonist is considered to be active in this test as long as it is capable of partially inhibiting this angiogenesis at a dose less than or equal to 300 nM.

[3] = test system: HUVEC cells stimulated with FGF-2; test: FGF-2-induced in vitro proliferation of HUVEC cells; type: cell-based, human; settings: inhibition of proliferation as percentage of the control
Procedure: To do this, HUVEC human vein endothelial cells (promocell, C-12200) are seeded at a rate of 5000 cells per well of a 96-well plate (Biocoat collagen I cellware, Becton Dickinson 354650) in 100 μl of RPMI 1640 deprivation medium (Invitrogen, 31872-025) supplemented with 0.5% or 1% FCS, 2 mM glutamine, 1× sodium pyruvate (Invitrogen, 11360-039) and 1×NEAA (Invitrogen, 11140-035), overnight at 37° C. in the presence of 5% CO2. The following morning, the medium is suctioned-off and replaced with 50 μl of deprivation medium containing the antagonists at a 2× concentration, to which are added 50 μl of FGF-2 (R&D systems, 133-FB-025; Invitrogen, PHG0026) at 0.2 ng/ml (i.e. 2×). After 48 or 72 h, 100 μl of Cell Titer-GLOW Luminescent Cell Viability Assay (Promega, G7571) are added for 10 min in order to measure, by means of a luminometer, the amount of ATP present in the cells and which is in relation to the number of cells per well corresponding to the cell proliferation.
The antagonists of the present invention are considered to be active as long as they are capable of inhibiting FGF-2-induced proliferation of HUVEC cells at a dose less than or equal to 300 nM.

SMILES: COc1c(C)c(C(=O)c2ccc3nc(C)[nH]c(=O)c3c2)n2ccccc12 [Compound No. 15, 6-[(1-Methoxy-2-methylindolizin-3-yl)carbonyl]-2-methylquinazolin-4(3H)-one]
- melting point: 290 °C and 287 °C
- % inhibition of the angiogenic parameter (dye content) ([1]; 30 mg/kg): 21%
- % inhibition of the inflammatory parameter (mass of the granuloma) ([1]; 30 mg/kg): 21%

SMILES: CCOC(=O)COn1c(=O)[nH]c2ccc(C(=O)c3c(C)c(OC)c4ccccn34)cc2c1=O [Compound No. 34, Ethyl({6-[(1-methoxy-2-methylindolizin-3-yl)carbonyl]-2,4-dioxo-1,4-dihydroquinazolin-3(2H)-yl}oxy)acetate]
- melting point: 230 °C

SMILES: COc1c(C)c(C(=O)c2ccc3[nH]c(=O)n(CC(=O)N(C)C)c(=O)c3c2)n2ccccc12 [Compound No. 35, 2-{6-[(1-Methoxy-2-methylindolizin-3-yl)carbonyl]-2,4-dioxo-1,4-dihydroquinazolin-3(2H)-yl}-N,N′-dimethylacetamide]
- % inhibition of the angiogenic parameter (dye content) ([1]; 30 mg/kg): 36%
- % inhibition of the inflammatory parameter (mass of the granuloma) ([1]; 30 mg/kg): 36%
- dye content corresponding to the angiogenesis ([1]; 10 or 30 mg/kg, after one week of daily treatment): significantly reduce

SMILES: COc1c(C)c(C(=O)c2ccc3[nH]c(=O)n(Cc4nc(C)no4)c(=O)c3c2)n2ccccc12 [Compound No. 36, 6-[(1-Methoxy-2-methylindolizin-3-yl)carbonyl]-3-[(3-methyl-1,2,4-oxadiazol-5-yl)methyl]quinazoline-2,4(1H,3H)-dione]
- melting point: 176 °C

SMILES: CCCn1c(=O)[nH]c2ccc(C(=O)c3c(C)c(OCCOC)c4ccccn34)cc2c1=O [Compound No. 48, 6-{[1(2-Methoxyethoxy)-2-methylindolizin-3-yl]carbonyl}-3-propylquinazoline-2,4(1H,3H)-dione]
- melting point: 215 °C

SMILES: COc1c(C)c(C(=O)c2ccc3[nH]c(=O)n(N)c(=O)c3c2)n2ccccc12 [Compound No. 51, 3-Amino-6-[(1-methoxy-2-methylindolizin-3yl)carbonyl]quinazoline-2,4(1H,3H)-dione]
- melting point: 220 °C

SMILES: COc1c(C)c(C(=O)c2ccc3c(c2)c(=O)c(C(=O)[O-])cn3C)n2ccccc12.[Na+] [Compound No. 62, Sodium salt of 6-[(1-methoxy-2-methylindolizin-3-yl)carbonyl]-1-methyl-4-oxo-1,4-dihydroquinoline-3-carboxylic acid]
- % inhibition of the angiogenic parameter (dye content) ([1]; 10 mg/kg): 43%
- % inhibition of the inflammatory parameter (mass of the granuloma) ([1]; 10 mg/kg): 38%

SMILES: COc1c(C)c(C(=O)c2ccc3c(c2)c(=O)n(CC(=O)N(C)C)c(=O)n3C)n2ccccc12 [Compound No. 68, 2-{6-[(1-Methoxy-2-methylindolizin-3-yl)carbonyl]-1-methyl-2,4-dioxo-1,4-dihydroquinazolin-3(2H)-yl}-N,N-dimethylacetamide]
- melting point: 276 °C

SMILES: CNC(=O)c1c[nH]c2ccc(C(=O)c3c(C)c(OC)c4ccccn34)cc2c1=O [Compound No. 96, 6-[(1-Methoxy-2-methylindolizin-3-yl)carbonyl]-N-methyl-4-oxo-1,4-dihydroquinoline-3-carboxamide]
- inhibition at 0.003 µM ([2]; Homo sapiens, 3 nM): 123%
- inhibition at 0.03 µM ([2]; Homo sapiens, 30 nM): 129%
- inhibition at 0.03 µM ([3]; Homo sapiens, 30 nM, read-out: Percentage inhibition of angiogenesis (%)): 123%
- inhibition at 0.3 µM ([3]; Homo sapiens, 300 nM, read-out: Percentage inhibition of angiogenesis (%)): 129%
- melting point: 324 °C

SMILES: CNC(=O)c1cn(C)c2ccc(C(=O)c3c(C)cc4ccccn34)cc2c1=O [Compound No. 105, N-1-Dimethyl-6-[(2-methylindolizin-3-yl)carbonyl]-4-oxo-1,4-dihydroquinoline-3-carboxamide]
- Percentage inhibition of angiogenesis (%) ([2]; 3 nM): 25%
- Percentage inhibition of angiogenesis (%) ([2]; 30 nM): 105%
- Percentage inhibition of angiogenesis (%) ([3]; 30 nM): 14%
- Percentage inhibition of angiogenesis (%) ([3]; 300 nM): 123%
